# According to ChEMBL document CHEMBL5608166, “Current therapy in amyotrophic lateral sclerosis (ALS): A review on past and future therapeutic strategies” (Eur J Med Chem, 2024):
# pIC50: −log10 of the molar value.
# Target: Tau-tubulin kinase 2 (Homo sapiens, UniProt Q6IQ55)
# Assay: Inhibition of TTBK2 (unknown origin)
# Tau-tubulin kinase 2, sequence (Q6IQ55 whole entry): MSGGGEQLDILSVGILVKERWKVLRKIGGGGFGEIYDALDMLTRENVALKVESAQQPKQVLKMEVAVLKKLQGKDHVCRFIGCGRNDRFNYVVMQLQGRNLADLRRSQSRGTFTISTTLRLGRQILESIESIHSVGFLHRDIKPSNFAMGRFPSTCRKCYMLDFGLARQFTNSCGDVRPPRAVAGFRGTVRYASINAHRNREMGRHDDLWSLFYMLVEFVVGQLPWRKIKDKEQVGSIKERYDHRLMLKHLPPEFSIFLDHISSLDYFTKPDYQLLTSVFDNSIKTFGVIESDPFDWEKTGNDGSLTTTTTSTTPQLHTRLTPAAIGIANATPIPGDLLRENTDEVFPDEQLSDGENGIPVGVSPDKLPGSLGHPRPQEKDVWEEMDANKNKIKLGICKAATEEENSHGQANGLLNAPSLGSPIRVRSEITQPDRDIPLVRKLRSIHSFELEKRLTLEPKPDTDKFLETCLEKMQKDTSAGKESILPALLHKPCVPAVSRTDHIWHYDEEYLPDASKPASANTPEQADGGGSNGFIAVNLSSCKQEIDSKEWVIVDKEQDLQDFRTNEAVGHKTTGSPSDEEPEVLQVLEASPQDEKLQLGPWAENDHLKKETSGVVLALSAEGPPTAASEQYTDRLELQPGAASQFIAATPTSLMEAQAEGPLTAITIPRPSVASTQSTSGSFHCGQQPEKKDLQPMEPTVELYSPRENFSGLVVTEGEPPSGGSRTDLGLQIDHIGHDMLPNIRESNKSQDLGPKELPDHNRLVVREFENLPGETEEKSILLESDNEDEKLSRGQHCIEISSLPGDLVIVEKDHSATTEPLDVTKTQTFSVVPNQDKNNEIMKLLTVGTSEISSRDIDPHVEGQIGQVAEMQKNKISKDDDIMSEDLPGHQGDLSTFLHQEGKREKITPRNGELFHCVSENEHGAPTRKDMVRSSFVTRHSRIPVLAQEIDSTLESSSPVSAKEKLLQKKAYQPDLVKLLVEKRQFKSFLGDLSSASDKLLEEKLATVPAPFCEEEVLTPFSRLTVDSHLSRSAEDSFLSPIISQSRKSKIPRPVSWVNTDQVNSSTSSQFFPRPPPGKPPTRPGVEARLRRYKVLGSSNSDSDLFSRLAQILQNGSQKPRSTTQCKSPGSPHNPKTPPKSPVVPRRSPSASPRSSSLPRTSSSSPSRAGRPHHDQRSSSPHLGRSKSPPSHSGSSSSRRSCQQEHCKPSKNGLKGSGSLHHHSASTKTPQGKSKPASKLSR
structure (smiles),measurement,value
CC1(N)CCN(Cc2ccn3ncnc(Nc4cc(O)cc(Br)c4)c23)CC1,pIC50,8.80
